Here are results for one molecule from ChEMBL document CHEMBL1811810, “N-substituted homopiperazine barbiturates as gelatinase inhibitors” (Bioorg Med Chem, 2011).

For the assay, the system named is Caco-2. Briefly: cells. As to conditions: Homo sapiens, Caco-2, read-out: INH.

Description: Inhibition of cell invasion of human Caco2 cells at 100 nM by cell invasion assay

Consider `CN(C)c1cccc2c(S(=O)(=O)N3CCCN(C4(c5ccc(Oc6ccccc6)cc5)C(=O)NC(=O)NC4=O)CC3)cccc12`, for which the inhibition at 0.1 µM is 20.1%.
